Measurements as given in US11484561B2, “Morus extracts rich in N-acids of imino sugars and or pipecolic acids” (Phynova Limited, priority 2011, dated 2022).

Experiments:
Format in all cases: biochemical
[1] = molecular target: T1, α-D-galactosidase (green coffee bean) (Coffea arabica, UniProt Q42656); experiment: Glycosidase assay, α-D-galactosidase (green coffee bean); conditions: Table 16; % inhibition; concentration not given
T1 construct: purchased Sigma-Aldrich
Description: (§1) The assays used p-nitrophenyl-substrates and commercial enzymes purchased from Sigma-Aldrich. Enzymes were assayed at 27° C. in 0.1M citric acid/0.2M disodium hydrogen phosphate buffers at the optimum pH for the enzyme. The incubation mixture consisted of 10 μl enzyme solution, 10 μl of 10 mg/ml aqueous solution of extract and 50 μl of the appropriate 5 mM p-nitrophenyl substrate made up in buffer at the optimum pH for the enzyme. The reactions were stopped by addition of 70 μl 0.4M glycine (pH 10.4) during the exponential phase of the reaction, which had been determined at the beginning using uninhibited assays in which water replaced mulberry fractions. Final absorbances were read at 405 nm using a Versamax microplate reader (Molecular Devices). Assays were carried out in triplicate, and the values given are means of the three replicates per assay. Results are expressed as % inhibition.
(§2) Substrates are 10 mM p-nitrophenyl-glycopyranosides. Enzymes are purchased from Sigma and run at the pH optima

[2] = molecular target: T2, α-D-glucosidase (Yeast) (Saccharomyces cerevisiae, UniProt P53341); experiment: Glycosidase assay, α-D-glucosidase (Yeast); conditions: Table 16; % inhibition; concentration not given
T2 construct: purchased Sigma-Aldrich
Description: as §1, §2

[3] = molecular target: T3, human recombinant α-L-iduronidase (Homo sapiens, UniProt P35475); experiment: α-L-iduronidase inhibition
T3 sequence (P35475 28-653): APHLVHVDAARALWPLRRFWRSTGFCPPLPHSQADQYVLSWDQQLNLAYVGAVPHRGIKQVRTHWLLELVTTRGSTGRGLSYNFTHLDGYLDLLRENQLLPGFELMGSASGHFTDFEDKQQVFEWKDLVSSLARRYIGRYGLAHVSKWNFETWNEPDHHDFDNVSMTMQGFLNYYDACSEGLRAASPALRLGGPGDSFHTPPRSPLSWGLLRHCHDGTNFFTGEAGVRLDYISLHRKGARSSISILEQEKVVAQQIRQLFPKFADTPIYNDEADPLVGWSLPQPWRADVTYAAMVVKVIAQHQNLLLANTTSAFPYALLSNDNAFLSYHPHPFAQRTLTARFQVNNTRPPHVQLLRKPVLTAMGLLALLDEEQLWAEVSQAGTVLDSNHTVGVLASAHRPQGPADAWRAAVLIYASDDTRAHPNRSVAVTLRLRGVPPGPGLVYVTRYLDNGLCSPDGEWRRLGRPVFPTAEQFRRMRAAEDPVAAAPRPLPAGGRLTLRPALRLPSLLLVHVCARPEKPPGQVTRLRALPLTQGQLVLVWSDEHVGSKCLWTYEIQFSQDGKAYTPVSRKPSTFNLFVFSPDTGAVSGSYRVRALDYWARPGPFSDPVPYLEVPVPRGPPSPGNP

[4] = tested on: naringinase (P. decumbens); experiment: Glycosidase assay, naringinase (P. decumbens); conditions: Table 16; % inhibition; concentration not given
Description: as §1, §2

[5] = molecular target: T4, β-glucuronidase (bovine liver) (Bos taurus, UniProt A3KMY8); experiment: Glycosidase assay, β-glucuronidase (bovine liver); conditions: read-out: IC50 against bovine liver β-glucuronidase
T4 construct: purchased Sigma-Aldrich; host or cells: bovine liver
T4 sequence (A3KMY8 1-652): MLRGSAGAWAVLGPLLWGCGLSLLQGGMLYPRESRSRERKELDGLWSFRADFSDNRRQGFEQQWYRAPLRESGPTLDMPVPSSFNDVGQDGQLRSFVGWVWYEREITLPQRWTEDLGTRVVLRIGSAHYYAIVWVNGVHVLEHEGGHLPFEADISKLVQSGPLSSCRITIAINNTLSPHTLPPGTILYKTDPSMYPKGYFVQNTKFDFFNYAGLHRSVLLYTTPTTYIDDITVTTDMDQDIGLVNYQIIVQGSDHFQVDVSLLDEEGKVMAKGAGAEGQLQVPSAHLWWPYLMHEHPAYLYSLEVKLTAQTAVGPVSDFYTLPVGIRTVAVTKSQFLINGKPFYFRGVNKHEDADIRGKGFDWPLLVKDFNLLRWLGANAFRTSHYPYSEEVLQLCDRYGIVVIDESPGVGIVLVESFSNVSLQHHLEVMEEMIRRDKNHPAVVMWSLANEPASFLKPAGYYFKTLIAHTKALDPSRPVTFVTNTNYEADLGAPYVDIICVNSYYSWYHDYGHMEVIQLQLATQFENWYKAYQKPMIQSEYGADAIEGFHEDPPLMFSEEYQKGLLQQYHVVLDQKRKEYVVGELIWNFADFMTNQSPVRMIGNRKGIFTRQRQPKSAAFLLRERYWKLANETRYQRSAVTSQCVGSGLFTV
Description: as §1, §2

[6] = tested on: N-acetyl-β-D-gluc (Bovine kidney); experiment: Glycosidase assay, N-acetyl-β-D-gluc (Bovine kidney); conditions: Table 16; % inhibition; concentration not given
Description: as §1, §2

[7] = molecular target: T5, α-D-glucosidase (rice) (Oryza sativa subsp. japonica, UniProt Q653V7); experiment: Glycosidase assay, α-D-glucosidase (rice); conditions: Table 16; % inhibition; concentration not given
T5 construct: purchased Sigma-Aldrich
Description: as §1, §2

[8] = molecular target: T6, β-D-galactosidase (bovine) (Bos taurus, UniProt Q58D55); experiment: Glycosidase assay, β-D-galactosidase (bovine); conditions: Table 16; % inhibition; concentration not given
T6 construct: purchased Sigma-Aldrich
T6 sequence (Q58D55 28-653): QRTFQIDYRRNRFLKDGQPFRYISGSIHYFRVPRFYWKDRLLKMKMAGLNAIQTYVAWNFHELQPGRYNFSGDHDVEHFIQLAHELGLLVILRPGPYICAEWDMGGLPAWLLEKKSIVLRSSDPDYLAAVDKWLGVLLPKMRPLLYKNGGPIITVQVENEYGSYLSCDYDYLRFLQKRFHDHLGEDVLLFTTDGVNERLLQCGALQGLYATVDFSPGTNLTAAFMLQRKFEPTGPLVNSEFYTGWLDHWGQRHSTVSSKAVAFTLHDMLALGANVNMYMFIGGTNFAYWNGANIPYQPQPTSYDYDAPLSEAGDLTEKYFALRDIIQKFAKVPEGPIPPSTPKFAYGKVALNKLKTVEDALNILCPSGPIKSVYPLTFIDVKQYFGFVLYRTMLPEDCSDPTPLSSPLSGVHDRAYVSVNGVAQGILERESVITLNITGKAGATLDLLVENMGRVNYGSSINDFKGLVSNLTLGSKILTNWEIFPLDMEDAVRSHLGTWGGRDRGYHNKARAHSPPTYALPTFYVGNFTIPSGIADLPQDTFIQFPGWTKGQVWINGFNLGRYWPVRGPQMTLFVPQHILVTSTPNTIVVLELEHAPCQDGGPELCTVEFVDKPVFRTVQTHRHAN
Description: as §1, §2

[9] = tested on: α-D-glucosidase (Bacillus); experiment: Glycosidase assay, α-D-glucosidase (Bacillus); conditions: Table 16; % inhibition; concentration not given
Description: as §1, §2

T1 sequence (Q42656 16-378): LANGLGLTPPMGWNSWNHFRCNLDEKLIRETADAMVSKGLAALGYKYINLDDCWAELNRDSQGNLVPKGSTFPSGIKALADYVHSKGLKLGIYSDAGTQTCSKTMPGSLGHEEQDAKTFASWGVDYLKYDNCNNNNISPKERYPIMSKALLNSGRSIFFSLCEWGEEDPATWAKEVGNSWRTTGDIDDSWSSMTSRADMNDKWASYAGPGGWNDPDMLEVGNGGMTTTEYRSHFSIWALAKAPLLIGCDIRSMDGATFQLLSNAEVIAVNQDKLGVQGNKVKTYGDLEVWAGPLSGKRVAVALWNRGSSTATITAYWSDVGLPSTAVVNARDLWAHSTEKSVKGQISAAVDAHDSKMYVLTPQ
T5 sequence (Q653V7 34-885): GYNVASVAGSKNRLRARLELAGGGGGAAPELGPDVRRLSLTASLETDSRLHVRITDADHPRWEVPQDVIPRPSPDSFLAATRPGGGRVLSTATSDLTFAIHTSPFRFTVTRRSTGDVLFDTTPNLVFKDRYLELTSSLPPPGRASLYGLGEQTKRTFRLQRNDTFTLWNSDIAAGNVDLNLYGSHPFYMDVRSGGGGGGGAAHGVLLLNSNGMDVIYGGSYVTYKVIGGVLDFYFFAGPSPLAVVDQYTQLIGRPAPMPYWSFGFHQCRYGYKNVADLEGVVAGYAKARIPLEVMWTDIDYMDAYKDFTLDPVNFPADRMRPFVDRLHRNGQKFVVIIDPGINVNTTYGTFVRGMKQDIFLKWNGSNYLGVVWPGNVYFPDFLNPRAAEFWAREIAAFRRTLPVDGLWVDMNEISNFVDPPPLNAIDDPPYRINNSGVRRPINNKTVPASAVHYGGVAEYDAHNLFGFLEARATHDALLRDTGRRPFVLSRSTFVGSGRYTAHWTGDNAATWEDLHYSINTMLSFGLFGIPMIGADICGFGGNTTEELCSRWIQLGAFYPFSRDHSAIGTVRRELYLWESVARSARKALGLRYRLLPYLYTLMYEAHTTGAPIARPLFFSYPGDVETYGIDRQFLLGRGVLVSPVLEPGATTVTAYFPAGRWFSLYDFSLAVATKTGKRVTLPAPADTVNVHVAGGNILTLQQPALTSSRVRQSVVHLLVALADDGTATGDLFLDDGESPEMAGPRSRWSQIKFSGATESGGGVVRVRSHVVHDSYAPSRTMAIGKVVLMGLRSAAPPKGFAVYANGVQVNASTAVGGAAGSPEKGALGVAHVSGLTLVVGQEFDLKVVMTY
T2 sequence (P53341 whole entry): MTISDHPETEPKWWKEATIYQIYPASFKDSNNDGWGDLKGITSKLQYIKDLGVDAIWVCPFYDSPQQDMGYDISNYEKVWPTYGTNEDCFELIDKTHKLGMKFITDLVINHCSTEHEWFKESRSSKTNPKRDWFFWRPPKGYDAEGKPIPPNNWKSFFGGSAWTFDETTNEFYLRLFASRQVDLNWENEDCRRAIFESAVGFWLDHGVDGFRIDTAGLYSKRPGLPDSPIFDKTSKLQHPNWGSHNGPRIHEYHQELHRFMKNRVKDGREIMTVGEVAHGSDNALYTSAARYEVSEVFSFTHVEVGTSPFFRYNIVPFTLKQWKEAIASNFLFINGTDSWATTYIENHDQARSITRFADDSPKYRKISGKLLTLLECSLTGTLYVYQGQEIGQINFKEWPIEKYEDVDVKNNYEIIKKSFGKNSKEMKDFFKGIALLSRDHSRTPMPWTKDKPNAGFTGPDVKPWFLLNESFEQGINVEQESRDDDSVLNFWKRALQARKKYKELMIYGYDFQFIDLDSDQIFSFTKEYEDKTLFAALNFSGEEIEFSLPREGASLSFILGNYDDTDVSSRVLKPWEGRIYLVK

SMILES | α-D-galactosidase (Green coffee beans) [1] [%] | α-D-glucosidase (Yeast) [2] [%] | IC50 [3] [µM] | Naringinase (P. decumbens) [4] [%] | IC50 [5] [µM] | N-acetyl-β-D-gluc (Bovine kidney) [6] [%] | α-D-glucosidase (Rice) [7] [%] | β-D-galactosidase (Bovine) [8] [%] | α-D-glucosidase (Bacillus) [9] [%] | inhibition of the iduronidase, in words ([3]; at 0.8 mM)
O=C(O)CN1C[C@@H](O)[C@H](O)[C@H]1CO [DAB-N-ethanoic, DAB-N-ethanoic acid] | −5 | 10.7 | 196 | 0 | 523 | 82 | 42 | 0 | 24.2 | 
OC[C@H]1NC[C@H](O)[C@@H](O)[C@@H]1O [DNJ, 1 deoxynojirmycin] | −3 | 36 |  | 21 |  | 0 | 100 | 0 | 100 | 
O=C(O)CN1C[C@H](O)[C@@H](O)[C@H](O)[C@H]1CO [DNJ-N-ethanoic, DNJ-ethanoic acid] | −8 | 2.5 |  | 0 | 208 | 84 | 100 | 2 | 9.1 | only weakly inhibits
O=C(O)CCN1C[C@H](O)[C@@H](O)[C@H](O)[C@H]1CO [DNJ-N-propanoic, DNJ-N-propanoic acid] | 15 | 0.0 | 383 | 4 | 340 | 86 | 100 | 12 | 45.0 | 
